The nature of series [1]: Acute toxicity in po dosed Swiss mouse assessed as mortality after 7 days. The series is classed as organism-based. The settings on record: in vivo.
Series [2] relates to Mus musculus. The experiment in a line: Antidepressant activity in po dosed Swiss mouse assessed as reversal of reserpine-induced hypothermia measured over 5 hrs. The series is classed as functional.
The subject of series [3] is Mus musculus. The experiment in a line: Antidepressant activity in po dosed Swiss mouse assessed as reversal of reserpine-induced ptosis administered 1 hr prior to reserpine challenge. The series is classed as functional.
The test system of series [4] is Mus musculus. As to the kind of experiment: Toxicity in po dosed Swiss mouse assessed as behavioral changes. The series is classed as organism-based. The settings on record: in vivo.
In series [5] the test system is Ileum. The experiment in a line: Antispasmodic activity in guinea pig ileum assessed as inhibition of histamine-induced spasm. The settings on record: Cavia porcellus, read-out: ED50 (the source's name). The class given is functional.
In series [6] the test system is Ileum. The experiment in a line: Antispasmodic activity in guinea pig ileum assessed as inhibition of acetylcholine-induced spasm. The class given is functional. The settings on record: Cavia porcellus, read-out: ED50 (the source's name).

≈ marks a conversion by molar mass, not a printed value.

For orientation: LD50 means the dose at which mortality reaches 50%. Take `CN(C)CCc1c(-c2ccccc2)c2cccc3c2n1-c1ccccc1CC3`: the LD50 at 168 h in series [1] is 1900 mg/kg. For the same compound, the MED50 in the series with Mus musculus [2] and in the series on Mus musculus [3] was more than 50 mg/kg in each case. In addition, the Activity result in the series on Mus musculus [4] is “Non-toxic”.
For `Cl.c1ccc(CN(CCc2cc3cccc4c3n2-c2ccccc2CC4)Cc2ccccc2)cc1`, the LD50 at 168 h in series [1] was 1400 mg/kg. Also, the EC50 in the series with Ileum [5] and in the series with Ileum [6] was more than 10 µg/mL each time. Further, the figures for the MED50 in the series with Mus musculus [2] and in the series with Mus musculus [3] were more than 50 mg/kg and 50 mg/kg, respectively. Also, the Activity entry in the series on Mus musculus [4] is given as “Non-toxic”.
Regarding `CN(C)CCCN1c2ccccc2CCc2ccccc21` [IMIPRAMINE], the EC50 in the series with Ileum [5] is 0.006 µg/mL (≈ 0.0214 µM); in the series on Ileum [6] it was 0.3 µg/mL (≈ 1.07 µM). In addition, the MED50 in the series on Mus musculus [2] and with Mus musculus [3] was 2.5 mg/kg in each case.
For `Cc1c(CN(C)C)c2cccc3c2n1-c1ccccc1CC3`, the LD50 at 168 h in series [1] was determined as 450 mg/kg. In addition, the MED50 in the series with Mus musculus [2] and in the series on Mus musculus [3] was more than 50 mg/kg throughout. Further, the Activity result in the series with Mus musculus [4] was “Non-toxic”.
As for `Cc1c(CCN(C)C)n2c3c(cccc13)CCc1ccccc1-2`, in series [1], the LD50 at 168 h stood at 195 mg/kg. In addition, the EC50 with Ileum [5] and with Ileum [6] was more than 10 µg/mL in each case. Besides, the MED50 was more than 50 mg/kg with Mus musculus [2] and 7.5 mg/kg with Mus musculus [3]. Further, the Activity result in the series with Mus musculus [4] was “Non-toxic”.
On to `CN(C)Cc1cc2cccc3c2n1-c1ccccc1CC3`, for which, in series [1], the LD50 at 168 h is 210 mg/kg. The MED50 in the series with Mus musculus [2] and with Mus musculus [3] was more than 50 mg/kg throughout. Further, in the series on Mus musculus [4], the Activity entry was “Non-toxic”.
For the compound `CN(CCc1cc2cccc3c2n1-c1ccccc1CC3)Cc1ccccc1.Cl` [AZIPRAMINE HYDROCHLORIDE], in series [1], the LD50 at 168 h was more than 4000 mg/kg. The EC50 with Ileum [5] and in the series with Ileum [6] was more than 5 µg/mL in each case. In addition, the MED50 was found to be 5 mg/kg in the series on Mus musculus [2] and 3.5 mg/kg in the series on Mus musculus [3]. Besides, the Activity entry in the series on Mus musculus [4] is “Non-toxic”.
For `CN(C)CCc1cc2cccc3c2n1-c1ccccc1CC3`, the LD50 at 168 h in series [1] came to 420 mg/kg. Further, the EC50 in the series on Ileum [5] turned out to be 0.2 µg/mL (≈ 0.689 µM); in the series with Ileum [6], 1 µg/mL (≈ 3.44 µM). Moreover, the MED50 in the series with Mus musculus [2] was 5 mg/kg; with Mus musculus [3] it was 2 mg/kg. For the same compound, in the series on Mus musculus [4], the Activity result is “Non-toxic”.
On to `CN(C)Cc1c(-c2ccccc2)n2c3c(cccc13)CCc1ccccc1-2`, for which the LD50 at 168 h in series [1] was found to be 1600 mg/kg. Moreover, the MED50 with Mus musculus [2] and with Mus musculus [3] was more than 50 mg/kg in each case. Moreover, the Activity entry in the series on Mus musculus [4] was “Non-toxic”.
In the case of `CN(C)CCc1cc2cccc3c2n1-c1ccccc1OC3.Cl`, in series [1], the LD50 at 168 h turned out to be 195 mg/kg. Besides, the EC50 in the series on Ileum [5] is 1 µg/mL; in the series with Ileum [6], 10 µg/mL. Moreover, the MED50 came to 50 mg/kg in the series on Mus musculus [2] and 3 mg/kg in the series with Mus musculus [3]. Further, in the series on Mus musculus [4], the Activity result is on record as “Non-toxic”.
Regarding `CNCCc1c(C)c2cccc3c2n1-c1ccccc1CC3.Cl`, the LD50 at 168 h in series [1] is 390 mg/kg. For the same compound, the EC50 with Ileum [5] was 5 µg/mL; in the series with Ileum [6] it was 6 µg/mL. The MED50 in the series with Mus musculus [2] was more than 50 mg/kg; in the series on Mus musculus [3], 2.5 mg/kg. For the same compound, the Activity entry in the series on Mus musculus [4] is reported as “Non-toxic”.
On to `Cc1c(CCN(C)C)n2c3c(cccc13)COc1ccccc1-2.Cl`, for which the median lethal dose (LD50) at 168 h in series [1] was 310 mg/kg. Besides, the MED50 in the series with Mus musculus [2] was more than 50 mg/kg; with Mus musculus [3] it was 10 mg/kg. The Activity entry in the series on Mus musculus [4] is recorded as “Non-toxic”.
In the same order, the values of `Cc1c(CCN(C)Cc2ccccc2)n2c3c(cccc13)CCc1ccccc1-2.Cl` are more than 4000 mg/kg, more than 50 mg/kg, more than 50 mg/kg and “Non-toxic”.
In the same order, the values of `CN(C)Cc1cn2c3c(cccc13)CCc1ccccc1-2.Cl` are 170 mg/kg, more than 50 mg/kg, more than 50 mg/kg and “Non-toxic”.
Take `CNCCc1cc2cccc3c2n1-c1ccccc1CC3.Cl`: the LD50 at 168 h in series [1] was determined as 410 mg/kg. Moreover, the EC50 in the series with Ileum [5] was 0.6 µg/mL; in the series with Ileum [6], 4 µg/mL. The MED50 worked out at 2.5 mg/kg in the series on Mus musculus [2] and 1 mg/kg with Mus musculus [3]. In the series on Mus musculus [4], the Activity result is reported as “Non-toxic”.

For the origin of these results see ChEMBL document CHEMBL3272262, “Basic derivatives of 6,7-dihydroindolo(1,7-ab)(1) benzazepine and 6H-indolo(7,1-cd)(1,5) benzoxazepine as potential antidepressant agents” (J Med Chem, 1976).
